Results: PubChem BioAssay (NCI)
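All cell lines were grown in 96-well plates and treated with compound for 48 hours. Abbreviation: GI50, concentration required for 50% inhibition of growth. TGI: total growth inhibition.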

Key:
Assay in all cases: NCI-60 cell line screen, 48 h
UO-31 renal = system: UO-31 renal
TK-10 renal = system: TK-10 renal
SF-268 CNS = system: SF-268 CNS
EKVX NSCLC = system: EKVX NSCLC
CAKI-1 renal = system: CAKI-1 renal
NCI-H23 lung = system: NCI-H23 lung
LOX IMVI melanoma = system: LOX IMVI melanoma
SNB-19 CNS = system: SNB-19 CNS
OVCAR-3 ovarian = system: OVCAR-3 ovarian
SR leukemia = system: SR leukemia

Compound | TGI (UO-31 renal) [µM] | TGI (TK-10 renal) [µM] | TGI (SF-268 CNS) [µM] | TGI (EKVX NSCLC) [µM] | TGI (CAKI-1 renal) [µM] | TGI (NCI-H23 lung) [µM] | TGI (LOX IMVI melanoma) [µM] | TGI (SNB-19 CNS) [µM] | TGI (OVCAR-3 ovarian) [µM] | TGI (SR leukemia) [µM] | GI50 (UO-31 renal) [µM] | GI50 (TK-10 renal) [µM] | GI50 (SF-268 CNS) [µM] | GI50 (EKVX NSCLC) [µM] | GI50 (CAKI-1 renal) [µM] | GI50 (NCI-H23 lung) [µM] | GI50 (LOX IMVI melanoma) [µM] | GI50 (SNB-19 CNS) [µM] | GI50 (OVCAR-3 ovarian) [µM] | GI50 (SR leukemia) [µM]
COC(=O)C1=Cc2cn(S(=O)(=O)c3ccc(C)cc3)c3cccc(c23)C(C=C(C)C)N1C(C)=O (centres undefined) | > 100 | > 100 | > 100 | > 100 | 79.6 | > 100 | > 100 | > 100 | > 100 | > 100 |  |  |  |  |  |  |  |  |  | 
O=C1CCCCCCCCCCOC(=O)CCCCCCCCCCO1 | > 100 | > 100 | > 100 | > 100 | > 100 | > 100 | > 100 | > 100 | > 100 | > 100 |  |  |  |  |  |  |  |  |  | 
CC(C)(N)C(=O)N[C@@H]1C(=O)N2[C@@H]1SC(C)(C)[C@@H]2C(=O)O | > 100 | > 100 | > 100 | > 100 | > 100 | > 100 | > 100 | > 100 | > 100 | > 100 |  |  |  |  |  |  |  |  |  | 
NC(CSC1(c2ccc(Cl)cc2)c2ccccc2-c2ccccc21)C(=O)O (centres undefined) | 98.8 | 48.3 | 50.2 | > 100 | > 100 | 41.1 | 30.3 | 52.8 | > 100 | 46.9 |  |  |  |  |  |  |  |  |  | 
Cc1cc2nc3c4cc([N+](=O)[O-])ccc4n(CCN(C)C)c3nc2cc1C | 2.52 | 4.34 | 6.92 | 5.49 | 2.21 | 2.58 | 1.19 | > 32 | 5.23 | 5.1 | 0.187 | 0.373 | 0.787 | 0.579 | 0.334 | 0.501 | 0.28 | 0.487 | 0.59 | 0.253
[Au+].c1c[n-]cn1.c1ccc([PH+](c2ccccc2)c2ccccc2)cc1 | 19.4 | 6.46 | 28.3 | 38.2 | 16.4 | 25.1 | 15.2 | 18 | 5.2 | 9.48 | 8.36 | 2.66 | 3.32 | 11 | 4.69 | 5.85 | 4.03 | 7.28 | 2.43 | 2.54
Cc1ccc(S(=O)(=O)OC2CSSCC2OS(=O)(=O)c2ccc(C)cc2)cc1 (centres undefined) | 28.5 | 28.9 | 31.9 | 50 | 26.1 | 33.3 | 28.5 | 31.7 | 26.2 | 38.8 |  |  |  |  |  |  |  |  |  | 
NCCCCCCCCCn1c2c(c3ccccc3c1=O)C(=O)c1ccccc1-2 | 18.6 | 17.4 | 31.5 | 17.3 | 18.8 | 17 | 23.6 | 22.6 | 18.8 | > 50 | 7.68 | 8.8 | 11.8 | 9.16 | 9.15 | 7.94 | 7.38 | 9.27 | 9.46 | 1.55
C=CNC(=S)n1nc(-c2ccccc2NC(=O)C(F)(F)F)c(=O)n(C(=S)NC=C)c1=S | 73.6 | > 100 | 46 | 69.3 | > 100 | > 100 | > 100 | > 100 | 28.8 | 73.7 |  |  |  |  |  |  |  |  |  | 
COc1c(OC)c(OC)c(-c2cc(=O)c3c(OC)c(OC)c(OC)c(OC)c3o2)c(OC)c1OC | > 100 | 85.3 | > 100 | > 100 | > 100 | 95.7 | > 100 | > 100 | 33.5 | > 100 |  |  |  |  |  |  |  |  |  | 
O=[P+](O)c1cccnc1 | > 100 | > 100 | > 100 | > 100 | > 100 | > 100 | > 100 | > 100 | > 100 | > 100 |  |  |  |  |  |  |  |  |  | 
COc1cc(=O)oc(/C=C/CO)c1C | > 100 | > 100 | > 100 | > 100 | > 100 | > 100 | > 100 | > 100 | > 100 | > 100 |  |  |  |  |  |  |  |  |  | 
N/C(=N/N=C/c1cccc(F)c1)NO | > 100 | > 100 | 68.7 | > 100 | 91.7 | > 100 | 97.7 | > 100 | > 100 | > 100 |  |  |  |  |  |  |  |  |  | 
CCCCCCn1c2c(c3c(O)cccc31)C(=O)c1ccccc1-2 | 31.2 | 24.2 | 40.5 | 43.5 | 63.8 | 34.7 | 33.8 | > 100 | 43 | > 100 | 16.1 | 11 | 20.3 | 20.1 | 26.9 | 18.4 | 18.1 | 39.4 | 20.6 | 26
Oc1[nH]c2ccccc2c1/C=c1/ccc2c(c1)N=C(c1cc(F)cc(F)c1)N=2 | 20.1 | 27.7 | 25.6 | 17.5 | 15.1 | 17.7 | 18.9 | 28 | 17.9 | 9.21 | 3.42 | 14 | 9.44 | 2.63 | 2.47 | 4.13 | 3.94 | 9.62 | 5 | 2.43
CSCC(COC(C)=O)(CSC)c1ccncc1 | > 100 | > 100 | > 100 | > 100 | > 100 | > 100 | > 100 | > 100 | > 100 | > 100 |  |  |  |  |  |  |  |  |  | 
CC/C(=C(/CC)c1ccc(O)cc1)c1ccc(O)cc1 | 21.6 | 37.6 | 20.8 | 34.7 | 27.8 | 23 | 19.4 | 25.5 | 7 | 29.6 | 6.38 | 14.8 | 5.5 | 5.66 | 4.22 | 5.76 | 5.75 | 10.6 | 2.72 | 3.98

Compound | TGI (UO-31 renal) [µM] | TGI (TK-10 renal) [µM] | TGI (SF-268 CNS) [µM] | TGI (EKVX NSCLC) [µM] | TGI (CAKI-1 renal) [µM] | TGI (NCI-H23 lung) [µM] | TGI (LOX IMVI melanoma) [µM] | TGI (SNB-19 CNS) [µM] | TGI (OVCAR-3 ovarian) [µM] | TGI (SR leukemia) [µM] | GI50 (UO-31 renal) [µM] | GI50 (TK-10 renal) [µM] | GI50 (SF-268 CNS) [µM] | GI50 (EKVX NSCLC) [µM] | GI50 (CAKI-1 renal) [µM] | GI50 (NCI-H23 lung) [µM] | GI50 (LOX IMVI melanoma) [µM] | GI50 (SNB-19 CNS) [µM] | GI50 (OVCAR-3 ovarian) [µM] | GI50 (SR leukemia) [µM]
CC(=O)Nc1ccc(Cc2ccc3[nH]c(=O)cc(C)c3c2)cc1 | > 100 | > 100 | > 100 | > 100 | > 100 | > 100 | > 100 | > 100 | > 100 | > 100 |  |  |  |  |  |  |  |  |  | 
COC1/C=C/OC2(C)Oc3c(C)c(O)c4c(O)c(c(C=NOC(c5ccccc5)c5ccccc5)c(O)c4c3C2=O)NC(=O)/C(C)=C/C=C/C(C)C(O)C(C)C(O)C(C)C(OC(C)=O)C1C (centres undefined) | 7.74 | 3.59 | 8.23 | 7.67 | 7.15 | 5.43 | 1.82 | 6.87 | 2.01 | 5.93 | 1.65 | 1.14 | 2.25 | 1.82 | 1.77 | 1.48 | 0.913 | 1.89 | 1 | 1.94
c1ccc(N2N=NC3C4CC(C5c6ccccc6C45)C32)cc1 (centres undefined) | 72.1 | > 100 | > 100 | > 100 | > 100 | 75.9 | 39.6 | > 100 | > 100 | > 100 |  |  |  |  |  |  |  |  |  | 
COc1cccc(/C=C2\CCc3ccccc3C2=O)c1 | 24.3 | 34.6 | 29.1 | 29.3 | 36.4 | 40.1 | 36.8 | 26.7 | 26.2 | 15.1 | 10.9 | 15.1 | 14.8 | 13.9 | 11.3 | 16.3 | 12.9 | 12.4 | 12.9 | 3.1
C/C(CC(=O)Nc1cccc(C)c1C)=N\NC(N)=S | > 100 | > 100 | > 100 | > 100 | > 100 | > 100 | > 100 | > 100 | > 100 | 56.5 |  |  |  |  |  |  |  |  |  | 
O=C(c1ccccc1)c1c2n(c3c1cc(O)c1ccccc13)CCN2 | 31.3 | 75.2 | 9.85 | 22.5 | 52.5 | 12 | 6.87 | 3.46 | 7.82 | 3.46 | 16.2 | 23.1 | 3.19 | 8.63 | 11.1 | 4.17 | 2.7 | 1.85 | 2.23 | 1.06
O=C1Nc2c(ccc(Cl)c2Cl)/C1=C\c1cc(C(F)(F)F)cc(C(F)(F)F)c1 | 8.74 | 13 | 8.51 | 11.2 | 7.85 | 21.6 | 3.69 | 19.3 | 4.27 | 1.9 | 0.485 | 4.37 | 1.86 | 1.93 | 0.399 | 4.95 | 1.12 | 5.7 | 1.1 | 0.392
CS(=O)(=O)c1ccc(-c2cnc(NCc3ccco3)n3cnnc23)cc1 | > 100 | > 100 | > 100 | > 100 | > 100 | > 100 | > 100 | > 100 | > 100 | > 100 | 38.8 | > 100 | > 100 | > 100 | > 100 | > 100 | 60.1 | > 100 | > 100 | > 100
CNC(=O)c1cc(Oc2ccc3nc(NC(=O)Nc4cc(C(F)(F)F)cc(C(F)(F)F)c4)sc3c2)ccn1 | 2.68 | 3.35 | 2.86 | 4.56 | 2.69 | 2.38 | 2.53 | 4.43 | 2.27 | 2.6 | 1.26 | 1.67 | 1.27 | 1.28 | 1.15 | 0.573 | 1.21 | 1.34 | 1.03 | 0.514
COc1ccc2c(c1)C(=O)c1c-2c(OCCN2CCCCC2)nc2ccc(OC)cc12 | 1.67 | 16.7 | 9.46 | 4.12 | 2.96 | 7.68 | 1.73 | 15.1 | 2.67 | 1.25 | 0.259 | 4.51 | 0.461 | 1 | 0.342 | 1.12 | 0.42 | 0.66 | 0.892 | 0.235
O=C1c2ccccc2-c2ccccc2C1(Cl)Cl | 2.41 | 2.68 | 2.59 | 2.88 | 2.63 | 4.25 |  | 4.66 | 2.71 | 8.71 | 1.12 | 1.25 | 1.28 | 1.46 | 1.17 | 1.57 | 0.314 | 1.84 | 1.41 | 2.71
COc1ccc(NC(=O)C2=CC(=O)c3ccc(O)cc3C2=O)c(OC)c1 |  | > 100 | > 100 | > 100 | > 100 | > 100 | > 100 | > 100 | > 100 | > 100 |  |  |  |  |  |  |  |  |  | 
C=CCn1c(=O)c(C(=O)NC(=O)OCC)cn(C2CCCCC2)c1=O | > 100 | > 100 |  | > 100 | > 100 | > 100 | > 100 | > 100 | > 100 | > 100 |  |  |  |  |  |  |  |  |  | 
CCOC(=O)CP(=S)(S)c1ccccc1 (centres undefined) | > 100 | > 100 | > 100 | > 100 | > 100 | > 100 | > 100 | > 100 |  | > 100 |  |  |  |  |  |  |  |  |  | 
O=C1NC(Cc2ccccc2)C(=O)N2CCCC12 (centres undefined) | > 100 | > 100 | > 100 | > 100 | > 100 |  | > 100 | > 100 | > 100 | > 100 |  |  |  |  |  |  |  |  |  | 
O=C(O)C1C2CCC(O2)C1C(=O)NCc1cccnc1 (centres undefined) | > 100 | > 100 |  | > 100 | > 100 | > 100 | > 100 | > 100 | > 100 | > 100 |  |  |  |  |  |  |  |  |  | 
